Assay results from patent publication US8354400B2, “Benzoxazole compounds and methods of use” (Eisai R&D Co., Ltd., priority 2008, dated 2013).

Assays:
[1] = molecular target: T1, human TLR9 (Homo sapiens, UniProt Q9NR96); test: Primary assay: HEK/TLR9 activation (NF-kB luciferase reporter, Oligo CpG 2006 stimulation); assay type: cell-based; settings: HEK293 transfected with human TLR9 and NF-kB luciferase; compound 30 min before Oligo CpG 2006; overnight; read-out: HEK/TLR9 IC50
T1 construct: expressed in transfected cells; host or cells: HEK293 (ATCC No. CRP-1573 [sic])
T1 sequence (Q9NR96 26-1032): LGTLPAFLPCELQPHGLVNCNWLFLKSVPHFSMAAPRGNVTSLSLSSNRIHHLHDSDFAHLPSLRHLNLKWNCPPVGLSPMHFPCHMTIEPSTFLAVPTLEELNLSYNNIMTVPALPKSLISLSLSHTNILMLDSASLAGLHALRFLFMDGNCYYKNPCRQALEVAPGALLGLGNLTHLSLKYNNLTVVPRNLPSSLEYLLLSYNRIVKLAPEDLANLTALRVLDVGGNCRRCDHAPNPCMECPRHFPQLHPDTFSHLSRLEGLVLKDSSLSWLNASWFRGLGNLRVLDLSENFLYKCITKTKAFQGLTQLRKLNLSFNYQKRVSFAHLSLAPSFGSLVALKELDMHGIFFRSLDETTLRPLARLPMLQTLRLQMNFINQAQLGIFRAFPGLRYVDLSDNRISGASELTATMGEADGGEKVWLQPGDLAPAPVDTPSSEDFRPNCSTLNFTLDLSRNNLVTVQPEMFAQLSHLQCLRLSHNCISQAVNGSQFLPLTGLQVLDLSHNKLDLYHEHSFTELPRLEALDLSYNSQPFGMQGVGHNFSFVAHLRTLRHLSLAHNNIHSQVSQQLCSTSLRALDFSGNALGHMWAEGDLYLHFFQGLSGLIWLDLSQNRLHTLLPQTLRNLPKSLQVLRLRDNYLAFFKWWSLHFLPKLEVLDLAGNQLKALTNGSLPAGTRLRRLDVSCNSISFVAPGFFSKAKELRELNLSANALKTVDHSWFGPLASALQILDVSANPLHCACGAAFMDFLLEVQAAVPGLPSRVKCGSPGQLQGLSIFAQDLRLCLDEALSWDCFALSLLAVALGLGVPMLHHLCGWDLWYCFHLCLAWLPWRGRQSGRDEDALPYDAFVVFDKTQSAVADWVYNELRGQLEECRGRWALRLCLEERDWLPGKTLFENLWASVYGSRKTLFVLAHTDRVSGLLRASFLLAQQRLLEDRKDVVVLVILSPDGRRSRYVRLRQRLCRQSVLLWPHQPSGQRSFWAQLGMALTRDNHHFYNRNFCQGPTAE
Text: A. Primary Assay. The primary assay involved transfecting human embryonic kidney epithelial (HEK) cells with TLR9. More specifically, HEK293 […] cells (ATCC No. CRP-1573, American Type Culture Collection, Manassas, Va.) were transfected with pcDNA3.1D/V5-His-TOPO® plasmid (Invitrogen, Carlsbad, Calif.) encoding human TLR9 (directly inserted as a Tag polymerase-amplified PCR product) and firefly luciferase under the control of three NF-kB binding sites contained in the E-selectin-1 promoter, which was cloned into a pGL3-Enhancer Vector (Promega Corp, Madison, Wis.). Each compound was added to cells 30 min. before stimulation with Oligo CpG 2006, a synthetic phosphorothioate oligonucleotide (Hartmann et al., J Immunol. 164:1617-24 (2000)), with nucleotide sequence 5′-TCGTCGTTTTGTCGTTTTGTCGTT-3′ (SEQ ID NO:1). The cells were incubated overnight at 37° C. The luciferase substrate Steady-Glo® (Promega) was added to the wells, and luminescence was measured to determine the extent of TLR9-driven gene activation. The luminescence data was used to calculate an IC50 for each sample. The IC50 is defined as the concentration of compound that suppresses the luminescence to 50% of that observed in the absence of compound, in other words, with full stimulation.

[2] = tested on: dissociated mouse splenocytes; test: Spleen CellTiter-Glo viability assay; assay type: cell-based; settings: Splenocyte, 72 hours, viability (ATP)
Experimental: (3) Spleen CT Glo Assay: To determine if compounds had adverse effects on living cells, dissociated mouse splenocytes were incubated with some of the compounds for 72 hours. At the end of the incubation Celliter-Glo™ reagent (Promega Corporation, Madison, Wis.) was added and luminescence was read per manufacturer's instructions. This reagent measures ATP as an indication of cell metabolism. Dead cells will not produce signal. IC50 is defined as the concentration of compound that suppresses viability to 50% of that observed in the absence of compound. The few compounds that measurably affected viability did so at concentrations far above those that affected cytokine release in response to TLR9 stimulation.

[3] = tested on: human PBMC α-interferon response to Oligo CpG 2216; test: PBMC CpG 2216 assay (α-interferon ELISA); assay type: cell-based; settings: Oligo CpG 2216, 72 hrs, read-out: PBMC CpG2216 IC50
Experimental: (4) PBMC CpG 2216 Assay: A subset of compounds tested as described above were also assayed for suppression of human peripheral blood mononuclear cells (PBMC) α-interferon response to stimulation with Oligo CpG 2216, a synthetic oligo phosphorothioate/phosphodiester oligonucleotide (Vollmer et al. Eur J. Immunol. 34:251-62 (2004)), with nucleotide sequence 5′-ggG GGA CGA TCG TCg ggg gG-3′ (small letters indicate phosphorothioate linkages, all others are phosphodiester) (SEQ ID NO:3). Each compound was added to […] from healthy volunteer donors before addition of stimulatory oligonucleotide. Cells were stimulated in culture for 72 hrs and the supernatant was removed for ELISA analysis of α-interferon level was performed using a VeriKine™ Human IFN-Alpha ELISA kit (Pestka Biomedical Laboratories, N.J.).

[4] = tested on: serum IL-6 after s.c. oligo CpG 1668 challenge; test: In vivo short term CpG stimulation assay (serum IL-6); set-up: species or system mice; settings: for suppression of IL-6 (Table 3): 1.5 hours after oral administration of 20 mg/kg; for inhibition in vivo at 20 mg/kg: Mus musculus, po, 2 h, mice, oral in water, s.c. 30 micrograms oligo CpG 1668 within 90 minutes, serum two hours later, repeat assays separated by commas, read-out: Percent short-term IL-6 suppression
Experimental: Short Term CpG Stimulation Assay: Compounds identified as having potency in the HEK/TLR9 and splenocyte CpG 1668 assays described in Example 9, above, were tested in an in vivo short term CpG stimulation assay. Mice were orally administered compound in water, and challenged within 90 minutes by subcutaneous (s.c.) injection of 30 micrograms of oligo CpG 1668. Two hours later serum was taken and assayed for IL-6 using ELISA analysis. Results from assays repeated on different dates are set forth as multiple numbers separated by commas.

[5] = tested on: lymph node IL-6 release on CpG 1668 stimulation; test: Lymph node response: in vivo dosing, ex vivo CpG 1668 stimulation, IL-6 ELISA; set-up: species or system mice; settings: for IL-6 release in the lymph nodes: mice, oral 20 mg/kg or 60 mg/kg daily for two weeks, ex vivo CpG 1668 1 μg/ml 72 hrs
Experimental: Mice were orally administered one of those two compounds or hydroxychloroquine (“HCQ”) at either 20 mg/kg or 60 mg/kg daily for two weeks. After in vivo dosing, lymph nodes were removed and stimulated in vitro with CpG 1668 at 1 μg/ml for 72 hrs, after which supernatants were removed and assayed by ELISA for IL-6. Levels of dosing are indicated after each compound name appearing in the Figure.

| Structure (SMILES) | IC50 [1] | IC50 [2] | IC50 [3] | suppression of IL-6 (Table 3) [4] | inhibition in vivo at 20 mg/kg [4] | IL-6 release in the lymph nodes [5] | IL-6 release in the lymph nodes, low dose ([5]; 20 mg/kg oral daily for two weeks) |
| --- | --- | --- | --- | --- | --- | --- | --- |
| CN(C)CCN(C)CCCOc1ccc(-c2nc3ccc(OCCCN(C)CCN(C)C)cc3o2)cc1 [Compound 22] | 8.7 nM | 7110 nM | – | – | 36% | – | – |
| CN(C)CCCOc1ccc(-c2nc3ccc(OCCCN(C)C)cc3o2)cc1 [Compound 2] | 15.4 nM | > 10000 nM | 500 nM | – | – | suppressed IL-6 release | – |
| c1cc(CN2CCOCC2)ccc1CNCCCOc1ccc(-c2nc3ccc(OCCCNCc4ccc(CN5CCOCC5)cc4)cc3o2)cc1 [Compound 13] | 7.1 nM | 7070 nM | – | – | 40% | – | – |
| CCN(CC)CCN(C)CCCOc1ccc(-c2nc3ccc(OCCCN(C)CCN(CC)CC)cc3o2)cc1 [Compound 31] | 7.2 nM | > 10000 nM | 200 nM | – | – | – | – |
| c1cc(-c2nc3ccc(OCCCN4CCCC4)cc3o2)ccc1OCCCN1CCCC1 [Compound 23] | 11.1 nM | > 10000 nM | 600 nM | – | 91% | suppressed IL-6 release | particularly high levels of suppression |
| CN(C)CCCN(C)CCCOc1ccc(-c2nc3ccc(OCCCN(C)CCCN(C)C)cc3o2)cc1 [Compound 27] | 3.4 nM | 8960 nM | – | – | 30% | – | – |
| CCN(CC)CCNCCCOc1ccc(-c2nc3ccc(OCCCNCCN(CC)CC)cc3o2)cc1 [Compound 12] | 5.8 nM | > 10000 nM | 500 nM | – | – | – | – |

Second part, led by results:

| IC50 [1] | Structure (SMILES) | IC50 [2] | IC50 [3] | suppression of IL-6 (Table 3) [4] | inhibition in vivo at 20 mg/kg [4] | IL-6 release in the lymph nodes [5] | IL-6 release in the lymph nodes, low dose ([5]; 20 mg/kg oral daily for two weeks) |
| --- | --- | --- | --- | --- | --- | --- | --- |
| 12.5 nM | c1cc(-c2nc3ccc(OCCCN4CCC(N5CCCC5)CC4)cc3o2)ccc1OCCCN1CCC(N2CCCC2)CC1 [Compound 20] | > 10000 nM | 700 nM | No suppression | 0% | – | – |
| 5.6 nM | CN1CCCN(CCCOc2ccc(-c3nc4ccc(OCCCN5CCCN(C)CC5)cc4o3)cc2)CC1 [Compound 14] | > 10000 nM | – | No suppression | 0% | – | – |
| 12.1 nM | c1cc(-c2nc3ccc(OCCCN4CCCCC4)cc3o2)ccc1OCCCN1CCCCC1 [Compound 30] | > 10000 nM | 500 nM | – | 93% | – | – |
| 4.8 nM | CN1CCN(c2ccc(CNCCCOc3ccc(-c4nc5ccc(OCCCNCc6ccc(N7CCN(C)CC7)cc6)cc5o4)cc3)cc2)CC1 [Compound 11] | 10000 nM | 600 nM | – | – | – | – |
| 5.5 nM | CN(C)[C@@H]1CCN(CCCOc2ccc(-c3nc4ccc(OCCCN5CC[C@@H](N(C)C)C5)cc4o3)cc2)C1 [Compound 16] | > 10000 nM | 400 nM | – | 50% | – | – |
